Here are results for one molecule from publication PMC3900681, “Flock House Virus RNA Polymerase Initiates RNA Synthesis De Novo and Possesses a Terminal Nucleotidyl Transferase Activity” (PLoS ONE, 2014).

The test deals with T1, FHV protein A (MBP-Pro A) (Flock House virus, UniProt Q66929).
T1 construct: N-terminal MBP fusion (pMAL-c2X, EcoRI-SalI), tag kept; E. coli, amylose resin; ~155 kDa
The test can be described thus: RdRP assay, DIG-labelled RNA product on denaturing gel. Format: biochemical. The settings on record: blocked (+)-RNA1_1-191 template, 250 uM DIG RNA Labelling Mix, 1 mM MnCl2, pH 8.0, 30 C, 90 min.

T1 sequence (Q66929 whole entry, the tested form may be a part): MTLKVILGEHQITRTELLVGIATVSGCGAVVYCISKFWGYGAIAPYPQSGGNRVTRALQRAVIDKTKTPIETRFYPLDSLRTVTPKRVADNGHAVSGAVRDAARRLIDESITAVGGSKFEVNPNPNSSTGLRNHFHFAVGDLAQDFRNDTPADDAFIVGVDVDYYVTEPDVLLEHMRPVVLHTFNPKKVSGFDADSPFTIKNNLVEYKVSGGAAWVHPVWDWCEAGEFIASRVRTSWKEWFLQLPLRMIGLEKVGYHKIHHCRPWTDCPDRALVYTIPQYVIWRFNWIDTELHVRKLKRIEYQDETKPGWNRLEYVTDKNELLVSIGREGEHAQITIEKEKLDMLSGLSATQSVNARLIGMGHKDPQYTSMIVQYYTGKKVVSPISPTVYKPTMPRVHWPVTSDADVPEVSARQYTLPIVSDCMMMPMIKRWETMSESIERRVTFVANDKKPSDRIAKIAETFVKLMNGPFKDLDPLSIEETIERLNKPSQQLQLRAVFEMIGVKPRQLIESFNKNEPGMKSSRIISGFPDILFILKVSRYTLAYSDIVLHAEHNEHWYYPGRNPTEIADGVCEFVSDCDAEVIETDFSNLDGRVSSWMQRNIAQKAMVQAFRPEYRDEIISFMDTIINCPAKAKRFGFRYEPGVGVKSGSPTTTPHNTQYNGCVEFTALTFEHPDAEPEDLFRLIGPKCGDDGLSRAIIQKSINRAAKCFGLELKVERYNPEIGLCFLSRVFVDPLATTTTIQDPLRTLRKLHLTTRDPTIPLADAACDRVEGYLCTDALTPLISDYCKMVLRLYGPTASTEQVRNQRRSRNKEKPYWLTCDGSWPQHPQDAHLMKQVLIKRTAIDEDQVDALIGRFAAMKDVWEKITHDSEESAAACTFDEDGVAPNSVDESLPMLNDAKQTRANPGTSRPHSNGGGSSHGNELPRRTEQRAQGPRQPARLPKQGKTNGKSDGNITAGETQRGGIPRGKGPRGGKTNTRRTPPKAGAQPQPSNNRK

`O=C(O)CP(=O)(O)O` [PAA, phosphonoacetic acid]: the “inhibition, dose-response” value is listed as “PAA dramatically inhibited the RdRP activity of FHV protein A in a dose-response manner”.
